Reference: ChEMBL document CHEMBL2040838, “Synthesis of C-4-modified zanamivir analogs as neuraminidase inhibitors and their anti-AIV activities” (Eur J Med Chem, 2012)

What was measured:
Neuraminidase [1] = biological target: T1, Neuraminidase (Influenza A virus, UniProt B4URF0); experiment: Inhibition of Influenza A virus (A/Indonesia/5/2005(H5N1)) […] recombinant neuraminidase using 2'-(4-methylumbelliferyl)-alpha-D-N-acetylneuraminic acid as substrate after 1 hr by fluorescence assay
Influenza A virus [2] = experiment: Antiviral activity against Influenza A virus (A/Indonesia/5/2005(H5N1)) […] infected in MDCK cells assessed as protective rate against virus-induced cytopathic effect at 4 uM after 2 days by neutral red uptake assay; assay type: functional
Neuraminidase [3] = biological target: T1, Neuraminidase; experiment: Inhibition of Influenza A virus (A/Sydney/5/97(H3N2)) recombinant neuraminidase using 2'-(4- methylumbelliferyl)-alpha-D-N-acetylneuraminic acid as substrate after 1 hr by fluorescence assay; set-up: species or system Influenza A virus (A/Sydney/5/1997(H3N2))
Influenza A virus [4] = experiment: Antiviral activity against Influenza A virus (A/Indonesia/5/2005(H5N1)) […] infected in MDCK cells assessed as protective rate against virus-induced cytopathic effect at 5 uM after 2 days by neutral red uptake assay; assay type: functional
[5] = Clearance in Sprague-Dawley rat at 2 mg/kg, iv; assay type: ADME, organism-based; set-up: dose 2 mg/kg, route intravenous; details: in vivo
[6] = Volume of distribution in Sprague-Dawley rat at 2 mg/kg, iv; assay type: ADME, organism-based; set-up: dose 2 mg/kg, route intravenous; details: in vivo
in vivo [7] = details: Sprague-Dawley, rat, po, 10 mg/kg
in vivo [8] = details: Sprague-Dawley, rat, po, 10 mg/kg; remark: listed apart in the source
in vivo [9] = details: Sprague-Dawley, rat, iv, 2 mg/kg
in vivo [10] = details: Sprague-Dawley, rat, plasma, iv, 10 mg/kg
in vivo [11] = details: Sprague-Dawley, rat, plasma, po, 10 mg/kg

T1 sequence (B4URF0 whole entry): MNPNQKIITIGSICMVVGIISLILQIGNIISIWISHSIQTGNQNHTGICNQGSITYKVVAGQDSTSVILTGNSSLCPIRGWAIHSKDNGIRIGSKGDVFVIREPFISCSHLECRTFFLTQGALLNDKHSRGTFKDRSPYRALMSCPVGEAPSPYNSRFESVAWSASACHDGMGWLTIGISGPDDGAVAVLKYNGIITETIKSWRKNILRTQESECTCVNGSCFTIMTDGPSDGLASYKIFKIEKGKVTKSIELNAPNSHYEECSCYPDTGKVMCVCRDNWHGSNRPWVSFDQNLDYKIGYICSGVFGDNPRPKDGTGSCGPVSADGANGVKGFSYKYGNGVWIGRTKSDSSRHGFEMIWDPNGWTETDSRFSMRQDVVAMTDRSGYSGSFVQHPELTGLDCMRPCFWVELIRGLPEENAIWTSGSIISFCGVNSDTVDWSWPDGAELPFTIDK

Row | Structure (SMILES) | IC50 (Neuraminidase [1]) | Activity (Influenza A virus [2]) | IC50 (Neuraminidase [3]) | Activity (Influenza A virus [4]) | other results
1 | CC(=O)N[C@H]1[C@H]([C@H](O)[C@H](O)CO)OC(C(=O)O)=C[C@@H]1NC(=O)N[C@@H](Cc1ccccc1)C(=O)O | > 1000 µM | 0% | 629 µM | – | –
2 | CC(=O)N[C@H]1[C@H]([C@H](O)[C@H](O)CO)OC(C(=O)O)=C[C@@H]1NC(=O)N[C@@H](CCC(N)=O)C(=O)O | 103 µM | – | 58.1 µM | – | –
3 | CC(=O)N[C@H]1[C@H]([C@H](O)[C@H](O)CO)OC(C(=O)O)=C[C@@H]1NC(=O)NCC(=O)O | 113 µM | 6.2% | 530 µM | – | –
4 | CC(=O)N[C@H]1[C@H]([C@H](O)[C@H](O)CO)OC(C(=O)O)=C[C@@H]1NC(=O)N[C@@H](C)C(=O)NCC(=O)O | 126 µM | – | 101 µM | – | –
5 | CCNC(=S)N[C@H]1C=C(C(=O)O)O[C@@H]([C@H](O)[C@H](O)CO)[C@@H]1NC(C)=O | 298 µM | 27.8% | 612 µM | – | –
6 | CC(=O)N[C@H]1[C@H]([C@H](O)[C@H](O)CO)OC(C(=O)O)=C[C@@H]1NC(=O)NCc1ccccc1 | > 1000 µM | – | 705 µM | – | –
7 | CC(=O)N[C@H]1[C@H]([C@H](O)[C@H](O)CO)OC(C(=O)O)=C(C/C=C/c2ccc(C)cc2)[C@@H]1O | – | – | – | – | Ki (Neuraminidase [1]): 7.3 µM
8 | CC(=O)N[C@H]1[C@H]([C@H](O)[C@H](O)CO)OC(C(=O)O)=C[C@@H]1NC(=S)Nc1cccc2ccccc12 | 901 µM | – | 674 µM | 0% | –
9 | CC(=O)N[C@H]1[C@H]([C@H](O)[C@H](O)CO)OC(C(=O)O)=C[C@@H]1NC(=S)Nc1ccccc1Br | > 1000 µM | – | > 1000 µM | 2.9% | –
10 | CC(=O)N[C@H]1[C@H]([C@H](O)[C@H](O)CO)OC(C(=O)O)=C[C@@H]1NC(=S)Nc1ccccc1 | > 1000 µM | – | > 1000 µM | 13.6% | –
11 | CC(=O)N[C@H]1[C@H]([C@H](O)[C@H](O)CO)OC(C(=O)O)=C[C@@H]1NC(=O)Nc1ccc(F)cc1 | > 1000 µM | – | > 1000 µM | 0% | –
12 | CC(=O)N[C@H]1[C@H]([C@H](O)[C@H](O)CO)OC(C(=O)O)=C[C@@H]1NC(=S)NC1CC1 | 295 µM | 11.3% | 550 µM | – | –
13 | CC(=O)N[C@H]1[C@H]([C@H](O)[C@H](O)CO)OC(C(=O)O)=C[C@@H]1N1CCOCC1 | 517 µM | 26.8% | 567 µM | – | –
14 | COc1ccccc1NC(=S)N[C@H]1C=C(C(=O)O)O[C@@H]([C@H](O)[C@H](O)CO)[C@@H]1NC(C)=O | 578 µM | – | 89.6 µM | 11.7% | –
15 | CC(=O)N[C@H]1[C@H]([C@H](O)[C@H](O)CO)OC(C(=O)O)=C[C@@H]1N1CCCC(C(=O)O)C1 (some centres undefined) | 532 µM | – | 496 µM | – | –
16 | COc1ccc(NC(=O)N[C@H]2C=C(C(=O)O)O[C@@H]([C@H](O)[C@H](O)CO)[C@@H]2NC(C)=O)cc1 | 910 µM | – | 848 µM | 6.9% | –
17 | CC(=O)N[C@H]1[C@H]([C@H](O)[C@H](O)CO)OC(C(=O)O)=C[C@@H]1NC(=O)N[C@H](C(=O)O)C(C)C | 917 µM | 0% | 54.4 µM | – | –
18 | CC(=O)N[C@H]1[C@H]([C@H](O)[C@H](O)CO)OC(C(=O)O)=C[C@@H]1NC(=S)Nc1ccccc1F | 396 µM | – | 57.1 µM | 14.8% | –
19 | CCCCNC(=S)N[C@H]1C=C(C(=O)O)O[C@@H]([C@H](O)[C@H](O)CO)[C@@H]1NC(C)=O | 21.4 µM | 32.6% | 64.5 µM | – | –

Row | Structure (SMILES) | IC50 (Neuraminidase [1]) | Activity (Influenza A virus [2]) | IC50 (Neuraminidase [3]) | Activity (Influenza A virus [4]) | other results
20 | CC(=O)N[C@H]1[C@H]([C@H](O)[C@H](O)CO)OC(C(=O)O)=C[C@@H]1NC(=N)N [ZANAMIVIR] | – | – | – | 67.2% | clearance [5]: 1.42 mL/min/kg; Vd [6]: 0.03 L/kg; half-life (in vivo [7]): 15 min; bioavailability (in vivo [8]): 2.7%; half-life (in vivo [9]): 24 min
21 | COc1cccc(NC(=S)N[C@H]2C=C(C(=O)O)O[C@@H]([C@H](O)[C@H](O)CO)[C@@H]2NC(C)=O)c1 | > 1000 µM | – | > 1000 µM | 0% | –
22 | CC(=O)N[C@H]1[C@H]([C@H](O)[C@H](O)CO)OC(C(=O)O)=C[C@@H]1NC(=O)N[C@@H](CC(N)=O)C(=O)O | 2.72 µM | 8.7% | 0.58 µM | – | –
23 | CC(=O)N[C@H]1[C@H]([C@H](O)[C@H](O)CO)OC(C(=O)O)=C[C@@H]1NC(=O)NCc1ccco1 | 38.4 µM | – | 6.6 µM | 58% | half-life (in vivo [7]): 340 min; AUC(0-t) (in vivo [10]): 14000 ng·h/mL; AUC(0-t) (in vivo [11]): 381 ng·h/mL; bioavailability (in vivo [8]): 2.73%
24 | CC(=O)N[C@H]1[C@H]([C@H](O)[C@H](O)CO)OC(C(=O)O)=C[C@@H]1NC(=O)N[C@H](CC(N)=O)C(=O)O | 77.3 µM | – | 22.3 µM | – | –
25 | CC(=O)N[C@H]1[C@H]([C@H](O)[C@H](O)CO)OC(C(=O)O)=C[C@@H]1N1CCN(c2cccc(C(F)(F)F)c2)CC1 | 122 µM | – | 271 µM | – | –
26 | CC(=O)N[C@H]1[C@H]([C@H](O)[C@H](O)CO)OC(C(=O)O)=C[C@@H]1NC(=S)NCCCl | 67.2 µM | 20.3% | 100 µM | – | –
27 | CC(=O)N[C@H]1[C@H]([C@H](O)[C@H](O)CO)OC(C(=O)O)=C[C@@H]1N1CCC2(CC1)OCCO2 | 738 µM | 0% | 511 µM | – | –
28 | CC(=O)N[C@H]1[C@H]([C@H](O)[C@H](O)CO)OC(C(=O)O)=C[C@@H]1NC(=O)Nc1ccc(C)cc1 | 933 µM | – | 777 µM | 0% | –
29 | CC(=O)N[C@H]1[C@H]([C@H](O)[C@H](O)CO)OC(C(=O)O)=C[C@@H]1N1CCN(c2ccccc2)CC1 | 761 µM | – | 836 µM | – | –
30 | CC(=O)N[C@H]1[C@H]([C@H](O)[C@H](O)CO)OC(C(=O)O)=C[C@@H]1NC(=S)Nc1cccc(C(F)(F)F)c1 | > 1000 µM | – | > 1000 µM | 0% | –
31 | CC(=O)N[C@H]1[C@H]([C@H](O)[C@H](O)CO)OC(C(=O)O)=C[C@@H]1NC(=S)Nc1ccc(C(F)(F)F)cc1 | > 1000 µM | – | 894 µM | 34.4% | –
32 | CC(=O)N[C@H]1[C@H]([C@H](O)[C@H](O)CO)OC(C(=O)O)=C[C@@H]1NC(=O)N[C@H](C(=O)O)[C@@H](C)O | 392 µM | 0% | 488 µM | – | –
33 | CC(=O)N[C@H]1[C@H]([C@H](O)[C@H](O)CO)OC(C(=O)O)=C[C@@H]1NC(=O)N[C@@H](C)C(=O)O | 690 µM | 0% | 663 µM | – | –
34 | CC(=O)N[C@H]1[C@H]([C@H](O)[C@H](O)CO)OC(C(=O)O)=C[C@@H]1NC(=O)N1CCC[C@H]1C(=O)O | > 1000 µM | 0% | 574 µM | – | –
35 | CC(=O)N[C@H]1[C@H]([C@H](O)[C@H](O)CO)OC(C(=O)O)=C[C@@H]1NC(=O)Nc1ccc(Cl)cc1 | > 1000 µM | – | > 1000 µM | 0% | –
36 | CC(=O)N[C@H]1[C@H]([C@H](O)[C@H](O)CO)OC(C(=O)O)=C[C@@H]1NC(=O)NCC(=O)NCC(=O)O | 70.4 µM | 37.1% | 68.5 µM | – | –
37 | CSCC[C@H](NC(=O)N[C@H]1C=C(C(=O)O)O[C@@H]([C@H](O)[C@H](O)CO)[C@@H]1NC(C)=O)C(=O)O | 406 µM | 0% | 413 µM | – | –
